According to patent publication US6537948B1, “Uracil compounds and use thereof” (Sumitomo Chemical Company, Limited, priority 2000, dated 2003):

Legend:
[1] = tested on: common cocklebur (Xanthium pensylvanicum); assay: Test Example 3: foliar treatment of field; format: in vivo; settings: foliar spray, dosage 16 g/ha, 25 days after application
Description: (§1) A plastic pot having longer side of 27 cm, shorter side of 20 cm and depth of 7.5 cm was filled with soil and then seeded with ivyleaf morningglory (Ipomoea hederacea) and common cocklebur (Xanthium pensylvanicum). These test plants were grown in a greenhouse for 10 days. Then, therein, transplanted were common lambsquarters (Chenopodium album), redroot pigweed and giant foxtail (Setaria faberi) which had been seeded and grown for 14 days in a green house in advance. The test plants were further grown in the greenhouse for 8 days. After then, present compound 1-12 was formulated into an emulsifiable concentrate according to Formulation Example 2 and then diluted to the prescribed amount with water containing a spreading agent and the dilution was uniformly sprayed over the foliage of the test plants with a sprayer at a rate of 1000 liters per hectare. After the application, the test plants were grown in the greenhouse for 25 days, and the herbicidal activity was examined.

[2] = tested on: common lambsquarters (Chenopodium album); assay: Test Example 3: foliar treatment of field; format: in vivo; settings: foliar spray, dosage 16 g/ha, 25 days after application
Description: as §1

[3] = tested on: giant foxtail (Setaria faberi); assay: Test Example 3: foliar treatment of field; format: in vivo; settings: foliar spray, dosage 16 g/ha, 25 days after application
Description: as §1

[4] = tested on: ivyleaf morningglory (Ipomoea hederacea); assay: Test Example 3: foliar treatment of field; format: in vivo; settings: foliar spray, dosage 16 g/ha, 25 days after application
Description: as §1

redroot pigweed [5] = assay: Test Example 3: foliar treatment of field; format: in vivo, Amaranthus retroflexus; settings: foliar spray, dosage 16 g/ha, 25 days after application
Description: as §1

[6] = tested on: black nightshade (Solanum nigrum); assay: Test Example 4: soil surface treatment of field; format: in vivo; settings: soil surface spray, dosage 250 g/ha, 25 days after application
Excerpt: (§2) A plastic pot having longer side of 32 cm, shorter side of 22 cm and depth of 8 cm was filled with soil and then seeded with hemp sesbania (Sesbania exaltata), black nightshade (Solanum nigrum), velvetleaf (Abutilon theophrasti), pale smartweed (Polygonum lapathifolium), common lambsquarters (Chenopodium album) and giant foxtail (Setaria faberi). Then, the present compound 1-12 was formulated into an emulsifiable concentrate according to Formulation Example 2 and then diluted to the prescribed amount with water, and the dilution was uniformly sprayed over the surface of the soil with a sprayer at a rate of 1000 liters per hectare. After the application, the test plants were grown in the greenhouse for 25 days, and the herbicidal activity was examined.

[7] = tested on: common lambsquarters (Chenopodium album); assay: Test Example 4: soil surface treatment of field; format: in vivo; settings: soil surface spray, dosage 250 g/ha, 25 days after application
Excerpt: as §2

[8] = tested on: giant foxtail (Setaria faberi); assay: Test Example 4: soil surface treatment of field; format: in vivo; settings: soil surface spray, dosage 250 g/ha, 25 days after application
Excerpt: as §2

[9] = tested on: hemp sesbania (Sesbania exaltata); assay: Test Example 4: soil surface treatment of field; format: in vivo; settings: soil surface spray, dosage 250 g/ha, 25 days after application
Excerpt: as §2

[10] = tested on: pale smartweed (Polygonum lapathifolium); assay: Test Example 4: soil surface treatment of field; format: in vivo; settings: soil surface spray, dosage 250 g/ha, 25 days after application
Excerpt: as §2

[11] = tested on: velvetleaf (Abutilon theophrasti); assay: Test Example 4: soil surface treatment of field; format: in vivo; settings: soil surface spray, dosage 250 g/ha, 25 days after application
Excerpt: as §2

[12] = tested on: ivyleaf morningglory (Ipomoea hederacea); assay: Test Example 1: foliar treatment of field; format: in vivo; settings: foliar spray, dosage 125 g/ha, 16 days after application
[13] = tested on: velvetleaf (Abutilon theophrasti); assay: Test Example 1: foliar treatment of field; format: in vivo; settings: foliar spray, dosage 125 g/ha, 16 days after application
[14] = tested on: barnyardgrass (Echinochloa crus-galli); assay: Test Example 7: foliar spray, herbicidal activity index; format: in vivo; design: key: “0” means that there was no or little difference in the degree of germination or growth between the treated and the untreated tested plants at the time of examination; “10” means that the test plants died complete or their germination or growth was completely inhibited; settings: 4 days after application, index 0-10
Description: (§3) A plastic pot having longer side of 27 cm, shorter side of 19 cm and depth of 7 cm was filled with soil and then seeded with large crabgrass (Digitaria sanguinalis) and giant foxtail (Setaria faberi). Nine days after, barnyardgrass (Echinochloa crus-galli) was seeded therein and grown for 15 days in a greenhouse. Further, a plastic pot having longer side of 16.5 cm, shorter side of 12 cm and depth of 7 cm was filled with soil and then seeded with wild oat (Avena fatua), and grown for 18 days in a greenhouse. Then, each of the present compound 1-45 and B was formulated into an emulsifiable concentrate according to Formulation Example 2 and then diluted to the prescribed amount with water containing a spreading agent and the dilution was uniformly sprayed over the foliage of the test plants with a sprayer at a rate of 1000 liters per hectare. After the application, the test plants were grown in the greenhouse for 4 days, and the herbicidal activity was examined. (In the Table 13, the test plants are shown as follows.
(§4) Barnyardgrass: B, Large crabgrass: LC, Giant foxtail: GF, Wild oat: W

[15] = tested on: giant foxtail (Setaria faberi); assay: as above; format: in vivo; design: key: “0” means that there was no or little difference in the degree of germination or growth between the treated and the untreated tested plants at the time of examination; “10” means that the test plants died complete or their germination or growth was completely inhibited; settings: 4 days after application, index 0-10
Description: as §3, §4

[16] = tested on: large crabgrass (Digitaria sanguinalis); assay: as above; format: in vivo; design: key: “0” means that there was no or little difference in the degree of germination or growth between the treated and the untreated tested plants at the time of examination; “10” means that the test plants died complete or their germination or growth was completely inhibited; settings: 4 days after application, index 0-10
Description: as §3, §4

wild oat (Avena fatua) = assay: as above; format: in vivo; settings: 4 days after application, index 0-10
Description: as §3, §4

[17] = tested on: barnyardgrass (Echinochloa crus-galli); assay: Test Example 5: foliar treatment of field; format: in vivo; settings: foliar spray, dosage 16 g/ha, 6 days after application
Description: (§5) A plastic pot having longer side of 27 cm, shorter side of 20 cm and depth of 7.5 cm was filled with soil and then seeded with ivyleaf morningglory (Ipomoea hederacea) and common cocklebur (Xanthium pensylvanicum). Three days after, barnyardgrass (Echinochloa crus-galli) was seeded therein and grown for 7 days in a greenhouse. Then, therein, transplanted were common lambsquarters (Chenopodium album), redroot pigweed and giant foxtail (Setaria faberi) which had been seeded and grown for 14 days in a green house in advance. The test plants were further grown in the greenhouse for 8 days. After then, present compound 7-7 was formulated into an emulsifiable concentrate according to Formulation Example 2 and then diluted to the prescribed amount with water containing a spreading agent and the dilution was uniformly sprayed over the foliage of the test plants with a sprayer at a rate of 1000 liters per hectare. After the application, the test plants were grown in the greenhouse for 6 days, and the herbicidal activity was examined.

[18] = tested on: common cocklebur (Xanthium pensylvanicum); assay: Test Example 5: foliar treatment of field; format: in vivo; settings: foliar spray, dosage 16 g/ha, 6 days after application
Description: as §5

[19] = tested on: common lambsquarters (Chenopodium album); assay: Test Example 5: foliar treatment of field; format: in vivo; settings: foliar spray, dosage 16 g/ha, 6 days after application
Description: as §5

[20] = tested on: giant foxtail (Setaria faberi); assay: Test Example 5: foliar treatment of field; format: in vivo; settings: foliar spray, dosage 16 g/ha, 6 days after application
Description: as §5

[21] = tested on: ivyleaf morningglory (Ipomoea hederacea); assay: Test Example 5: foliar treatment of field; format: in vivo; settings: foliar spray, dosage 16 g/ha, 6 days after application
Description: as §5

redroot pigweed [22] = assay: Test Example 5: foliar treatment of field; format: in vivo, Amaranthus retroflexus; settings: foliar spray, dosage 16 g/ha, 6 days after application
Description: as §5

[23] = tested on: giant foxtail (Setaria faberi); assay: Test Example 8: foliar spray, herbicidal activity index; format: in vivo; design: key: “0” means that there was no or little difference in the degree of germination or growth between the treated and the untreated tested plants at the time of examination; “10” means that the test plants died complete or their germination or growth was completely inhibited; settings: foliar spray 373 liters per hectare, examined after 4 days, index 0-10
Description: (§6) A plastic pot having longer side of 16.5 cm, shorter side of 12 cm and depth of 7 cm was filled with soil and then seeded with large crabgrass (Digitaria sanguinalis), giant foxtail (Setaria faberi) and johnsongrass (Sorghum halepense). These test plants were grown in a greenhouse for 25 days. Then, each of the present compound 2-52 and C was formulated into an emulsifiable concentrate according to Formulation Example 2 and then diluted to the prescribed amount with water containing a spreading agent and the dilution was uniformly sprayed over the foliage of the test plants with a sprayer at a rate of 373 liters per hectare. After the application, the test plants were grown in the greenhouse for 4 days, and the herbicidal activity was examined. (In the Table 14, the test plants are shown as follows.
(§7) Large crabgrass: LC, Giant foxtail: GF, Johnsongrass: J

[24] = tested on: johnsongrass (Sorghum halepense); assay: as above; format: in vivo; design: key: “0” means that there was no or little difference in the degree of germination or growth between the treated and the untreated tested plants at the time of examination; “10” means that the test plants died complete or their germination or growth was completely inhibited; settings: foliar spray 373 liters per hectare, examined after 4 days, index 0-10
Description: as §6, §7

[25] = tested on: large crabgrass (Digitaria sanguinalis); assay: as above; format: in vivo; design: key: “0” means that there was no or little difference in the degree of germination or growth between the treated and the untreated tested plants at the time of examination; “10” means that the test plants died complete or their germination or growth was completely inhibited; settings: foliar spray 373 liters per hectare, examined after 4 days, index 0-10
Description: as §6, §7

COC(=O)C(C)Oc1cnc(Oc2cc(-n3c(=O)cc(C(F)(F)F)n(C)c3=O)c(F)cc2Cl)nc1 (stereo not shown) [Compound 1-12, methyl 2-([2-{2-chloro-4-fluoro-5-[3-methyl-2,6-dioxo-4-(trifluoromethyl)-1,2,3,6-tetrahydropyrimidin-1-yl]phenoxy}pyrimidin-5-yl]oxy)propionate]
growth of common cocklebur (herbicidal activity) [1]: completely controlled
growth of common lambsquarters (herbicidal activity) [2]: completely controlled
growth of giant foxtail (herbicidal activity) [3]: completely controlled
growth of ivyleaf morningglory (herbicidal activity) [4]: completely controlled
growth of redroot pigweed (herbicidal activity) (redroot pigweed [5]): completely controlled
growth of black nightshade (herbicidal activity) [6]: completely controlled
growth of common lambsquarters (herbicidal activity) [7]: completely controlled
growth of giant foxtail (herbicidal activity) [8]: completely controlled
growth of hemp sesbania (herbicidal activity) [9]: completely controlled
growth of pale smartweed (herbicidal activity) [10]: completely controlled
growth of velvetleaf (herbicidal activity) [11]: completely controlled

COC(=O)COc1cc(OC)nc(Oc2cc(-n3c(=O)cc(C(F)(F)F)n(C)c3=O)c(F)cc2Cl)n1 [Compound 1-45, 2-{2-chloro-4-fluoro-5-[3-methyl-2,6-dioxo-4-(trifluoromethyl)-1,2,3,6-tetrahydropyrimidin-1-yl]phenoxy}-6-methoxy-4-(methoxycarbonyl)methoxypyrimidine]
growth of ivyleaf morningglory (herbicidal activity) [12]: completely controlled
growth of velvetleaf (herbicidal activity) [13]: completely controlled
Herbicidal activity B ([14]; dosage 32 g/ha): 10
Herbicidal activity B ([14]; dosage 125 g/ha): 10
Herbicidal activity GF ([15]; dosage 32 g/ha): 10
Herbicidal activity GF ([15]; dosage 125 g/ha): 10
Herbicidal activity LC ([16]; dosage 32 g/ha): 10
Herbicidal activity LC ([16]; dosage 125 g/ha): 10
Herbicidal activity W (wild oat (Avena fatua); dosage 32 g/ha): 9
Herbicidal activity W (wild oat (Avena fatua); dosage 125 g/ha): 9

COC(=O)COc1ncccc1Oc1cc(-n2c(=O)cc(C(F)(F)F)n(C)c2=O)c(F)cc1Cl [Compound 7-7, 3-{2-chloro-4-fluoro-5-[3-methyl-2,6-dioxo-4-(trifluoromethyl)-1,2,3,6-tetrahydropyrimidin-1-yl]phenoxy}-2-(methoxycarbonyl)methoxypyridine]
growth of barnyardgrass (herbicidal activity) [17]: completely controlled
growth of common cocklebur (herbicidal activity) [18]: completely controlled
growth of common lambsquarters (herbicidal activity) [19]: completely controlled
growth of giant foxtail (herbicidal activity) [20]: completely controlled
growth of ivyleaf morningglory (herbicidal activity) [21]: completely controlled
growth of redroot pigweed (herbicidal activity) (redroot pigweed [22]): completely controlled
melting point: 52.2 °C

COC(=O)C(C)Nc1cccnc1Oc1cc(-n2c(=O)cc(C(F)(F)F)n(C)c2=O)c(F)cc1Cl (stereo not shown) [Compound 2-52, 2-{2-chloro-4-fluoro-5-[3-methyl-2,6-dioxo-4-(trifluoromethyl)-1,2,3,6-tetrahydropyrimidin-1-yl]phenoxy}-3-{1-(methoxycarbonyl)ethylamino}pyridine]
Herbicidal activity GF ([23]; dosage 32 g/ha): 9
Herbicidal activity GF ([23]; dosage 125 g/ha): 10
Herbicidal activity J ([24]; dosage 32 g/ha): 10
Herbicidal activity J ([24]; dosage 125 g/ha): 10
Herbicidal activity LC ([25]; dosage 32 g/ha): 9
Herbicidal activity LC ([25]; dosage 125 g/ha): 10

CC(=O)Nc1cccnc1Oc1cc(-n2c(=O)cc(C(F)(F)F)n(N)c2=O)c(F)cc1Cl [C, reference compound]
Herbicidal activity GF ([23]; dosage 32 g/ha): 6
Herbicidal activity GF ([23]; dosage 125 g/ha): 9
Herbicidal activity J ([24]; dosage 32 g/ha): 8
Herbicidal activity J ([24]; dosage 125 g/ha): 10
Herbicidal activity LC ([25]; dosage 32 g/ha): 7
Herbicidal activity LC ([25]; dosage 125 g/ha): 9
